SMILES strings stand for the structures.

In one experiment the target is T1, PI3K delta (Homo sapiens, UniProt O00329).
T1 construct: for the full-length p110-d subunit are generated and fused by overlapping PCR; His tag (C); made in house; host or cells: baculovirus BV1060; Tn5 (Trichoplusia ni) or TiniPro insect cells
T1 sequence (O00329 with tags, fused parts or gaps limits assumed): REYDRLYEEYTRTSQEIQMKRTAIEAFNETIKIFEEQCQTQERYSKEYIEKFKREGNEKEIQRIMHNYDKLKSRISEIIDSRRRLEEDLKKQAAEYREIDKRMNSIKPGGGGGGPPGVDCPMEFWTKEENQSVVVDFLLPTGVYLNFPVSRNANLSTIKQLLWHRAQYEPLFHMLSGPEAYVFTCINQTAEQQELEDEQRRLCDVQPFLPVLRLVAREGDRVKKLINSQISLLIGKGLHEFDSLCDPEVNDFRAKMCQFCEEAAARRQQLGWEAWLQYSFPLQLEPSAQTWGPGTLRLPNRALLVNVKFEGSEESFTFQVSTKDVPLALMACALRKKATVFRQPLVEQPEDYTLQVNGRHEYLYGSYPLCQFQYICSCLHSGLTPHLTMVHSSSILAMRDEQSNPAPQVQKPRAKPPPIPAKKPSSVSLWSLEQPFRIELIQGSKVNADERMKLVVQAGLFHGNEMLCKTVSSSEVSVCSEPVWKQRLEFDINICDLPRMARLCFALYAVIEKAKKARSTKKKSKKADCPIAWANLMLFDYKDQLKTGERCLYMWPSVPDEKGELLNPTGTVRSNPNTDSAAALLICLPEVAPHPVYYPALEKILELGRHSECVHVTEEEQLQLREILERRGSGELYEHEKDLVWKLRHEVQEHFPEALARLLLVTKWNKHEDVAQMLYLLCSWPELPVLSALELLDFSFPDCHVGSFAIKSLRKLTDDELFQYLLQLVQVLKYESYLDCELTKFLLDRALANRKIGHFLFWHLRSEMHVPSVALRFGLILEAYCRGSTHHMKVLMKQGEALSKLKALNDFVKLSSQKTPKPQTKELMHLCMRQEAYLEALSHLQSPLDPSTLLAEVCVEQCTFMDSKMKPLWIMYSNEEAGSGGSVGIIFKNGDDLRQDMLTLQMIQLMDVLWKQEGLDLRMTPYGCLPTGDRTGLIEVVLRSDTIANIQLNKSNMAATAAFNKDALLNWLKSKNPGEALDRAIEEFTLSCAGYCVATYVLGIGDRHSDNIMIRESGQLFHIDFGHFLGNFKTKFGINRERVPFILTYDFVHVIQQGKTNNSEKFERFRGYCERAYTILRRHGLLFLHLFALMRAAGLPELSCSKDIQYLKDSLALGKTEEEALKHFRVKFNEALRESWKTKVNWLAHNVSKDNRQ
Put plainly: PI3K delta kinase assay (Kinase-Glo luminescence). The class given is biochemical. As to conditions: read-out: EPK_PI3Kdelta/IC50. The gist of the method: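 Kinase-Glo ATP-depletion luminescence using 10 nM p85(iSH2)-linker-p110δ full-length His-tag construct from insect cells, with 1 μM ATP and 10 μg/mL phosphatidylinositol in 10 mM Tris pH 7.5, 3 mM MgCl2, 50 mM NaCl, 0.05% CHAPS, 1 mM DTT. 60 min room temperature; IC50 from 4-parameter logistic fit over 8 concentrations.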
As for `CCOc1cc(-c2ccc3ncc4c(c3c2)n(-c2ccc(F)nc2C)c(=O)n4C)cnc1COC` [Example 7.5, 8-(5-Ethoxy-6-methoxymethyl-pyridin-3-yl)-1-(6-fluoro-2-methyl-pyridin-3-yl)-3-methyl-1,3-dihydro-imidazo[4,5-c]quinolin-2-one], the IC50 worked out at 78 nM.
On to `Cc1nc(F)ccc1-n1c(=O)n(C)c2cnc3ccc(-c4cncc(C(C)(C)O)c4)cc3c21` [Example 7.8, 1-(6-Fluoro-2-methyl-pyridin-3-yl)-8-[5-(1-hydroxy-1-methyl-ethyl)-pyridin-3-yl]-3-methyl-1,3-dihydro-imidazo[4,5-c]quinolin-2-one], for which the IC50 worked out at 38 nM.
Still for that read-out and setting: the value for `Cc1nc(N2CCN(C)C(=O)C2)ccc1-n1c(=O)n(C)c2cnc3ccc(-c4cnc(N)c(C(F)(F)F)c4)cc3c21` [Example 21.1, 8-(6-Amino-5-trifluoromethyl-pyridin-3-yl)-3-methyl-1-[2-methyl-6-(4-methyl-3-oxo-piperazin-1-yl)-pyridin-3-yl]-1,3-dihydro-imidazo[4,5-c]quinolin-2-one] was 5 nM; that for `CCOc1cc(-c2ccc3ncc4c(c3c2)n(-c2ccc(OCCOC)nc2C)c(=O)n4C)cnc1COC` [Example 22.1, 8-(5-Ethoxy-6-methoxymethyl-pyridin-3-yl)-1-[6-(2-methoxy-ethoxy)-2-methyl-pyridin-3-yl]-3-methyl-1,3-dihydro-imidazo[4,5-c]quinolin-2-one] was 60 nM.
As for `Cc1nc(N2CCC2)ccc1-n1c(=O)n(C)c2cnc3ccc(-c4cncc(N5CCC5)c4)cc3c21` [Example 23.1, 1-(6-Azetidin-1-yl-2-methyl-pyridin-3-yl)-8-(5-azetidin-1-yl-pyridin-3-yl)-3-methyl-1,3-dihydro-imidazo[4,5-c]quinolin-2-one], the IC50 is 84 nM.
Turning to `COCc1ncc(-c2ccc3ncc4c(c3c2)n(-c2ccc(N3CCC3)nc2C)c(=O)n4C)cc1OC(C)C` [Example 23.2, 1-(6-Azetidin-1-yl-2-methyl-pyridin-3-yl)-8-(5-isopropoxy-6-methoxymethyl-pyridin-3-yl)-3-methyl-1,3-dihydro-imidazo[4,5-c]quinolin-2-one], the IC50 worked out at 31 nM.
With `Cc1nc(N2CCC2)ccc1-n1c(=O)n(C)c2cnc3ccc(-c4cncc(C(C)(C)O)c4)cc3c21` [Example 23.3, 1-(6-Azetidin-1-yl-2-methyl-pyridin-3-yl)-8-[5-(1-hydroxy-1-methyl-ethyl)-pyridin-3-yl]-3-methyl-1,3-dihydro-imidazo[4,5-c]quinolin-2-one], the IC50 is 16 nM.
Turning to `CNc1ccc(-c2ccc3ncc4c(c3c2)n(-c2ccc(N3CCC3)nc2C)c(=O)n4C)cn1` [Example 23.4, 1-(6-Azetidin-1-yl-2-methyl-pyridin-3-yl)-3-methyl-8-(6-methylamino-pyridin-3-yl)-1,3-dihydro-imidazo[4,5-c]quinolin-2-one], the IC50 was found to be 48 nM.
As for `CCOc1cc(-c2ccc3ncc4c(c3c2)n(-c2ccc(N3CCC3)nc2C)c(=O)n4C)cnc1COC` [Example 23.5, 1-(6-Azetidin-1-yl-2-methyl-pyridin-3-yl)-8-(5-ethoxy-6-methoxymethyl-pyridin-3-yl)-3-methyl-1,3-dihydro-imidazo[4,5-c]quinolin-2-one], the IC50 stood at 25 nM.
As to `COCc1ncc(-c2ccc3ncc4c(c3c2)n(-c2ccc(N3CCC3)nc2C)c(=O)n4C)cc1OC` [Example 23.6, 1-(6-Azetidin-1-yl-2-methyl-pyridin-3-yl)-8-(5-methoxy-6-methoxymethyl-pyridin-3-yl)-3-methyl-1,3-dihydro-imidazo[4,5-c]quinolin-2-one], the IC50 came to 46 nM.
As to `CCNc1cc(-c2ccc3ncc4c(c3c2)n(-c2ccc(N3CCC3)nc2C)c(=O)n4C)cnc1CO` [Example 23.8, 1-(6-Azetidin-1-yl-2-methyl-pyridin-3-yl)-8-(5-ethylamino-6-hydroxymethyl-pyridin-3-yl)-3-methyl-1,3-dihydro-imidazo[4,5-c]quinolin-2-one], the IC50 came out at 17 nM.
As to `Cc1nc(N2CCC2)ccc1-n1c(=O)n(C)c2cnc3ccc(-c4cncc(OC(C)C)c4)cc3c21` [Example 23.9, 1-(6-Azetidin-1-yl-2-methyl-pyridin-3-yl)-8-(5-isopropoxy-pyridin-3-yl)-3-methyl-1,3-dihydro-imidazo[4,5-c]quinolin-2-one], the IC50 came out at 32 nM.
The same measure, in the same setting: the value for `CNc1ncc(-c2ccc3ncc4c(c3c2)n(-c2ccc(N3CC(F)(F)C3)nc2C)c(=O)n4C)cn1` [Example 24.1, 1-[6-(3,3-Difluoro-azetidin-1-yl)-2-methyl-pyridin-3-yl]-3-methyl-8-(2-methylamino-pyrimidin-5-yl)-1,3-dihydro-imidazo[4,5-c]quinolin-2-one] was 164 nM.

Staying with this experiment, now noted: read-out: PI3Kdelta/IC50.
Regarding `Cc1cccnc1-n1c(=O)n(C)c2cnc3ccc(-c4ccc(CO)nc4)cc3c21` [Example 3.9, 8-(6-Hydroxymethyl-pyridin-3-yl)-3-methyl-1-(3-methyl-pyridin-2-yl)-1,3-dihydro-imidazo[4,5-c]quinolin-2-one], the IC50 amounted to 583 nM.
Consider `COc1ccc(-c2ccc3ncc4c(c3c2)n(-c2ncccc2C)c(=O)n4C)cc1OC` [Example 3.10, 8-(3,4-Dimethoxy-phenyl)-3-methyl-1-(3-methyl-pyridin-2-yl)-1,3-dihydro-imidazo[4,5-c]quinolin-2-one], for which the IC50 was determined as 151 nM.
Regarding `Cc1cccnc1-n1c(=O)n(C)c2cnc3ccc(-c4cnc(N)c(C(F)(F)F)c4)cc3c21` [Example 3.12, 8-(6-Amino-5-trifluoromethyl-pyridin-3-yl)-3-methyl-1-(3-methyl-pyridin-2-yl)-1,3-dihydro-imidazo[4,5-c]quinolin-2-one], the IC50 was determined as 21 nM.
For the molecule `Cc1ccncc1-n1c(=O)n(C)c2cnc3ccc(-c4ccc(CO)nc4)cc3c21` [Example 4.1, 8-(6-Hydroxymethyl-pyridin-3-yl)-3-methyl-1-(4-methyl-pyridin-3-yl)-1,3-dihydro-imidazo[4,5-c]quinolin-2-one], the IC50 is 406 nM.
The same measure, in the same setting: as for `CCOc1ccc(-c2ccc3ncc4c(c3c2)n(-c2cnccc2C)c(=O)n4C)cn1` [Example 4.2, 8-(6-Ethoxy-pyridin-3-yl)-3-methyl-1-(4-methyl-pyridin-3-yl)-1,3-dihydro-imidazo[4,5-c]quinolin-2-one], the figure is 401 nM.
Turning to `COc1ccc(-c2ccc3ncc4c(c3c2)n(-c2cnccc2C)c(=O)n4C)cn1` [Example 4.3, 8-(6-Methoxy-pyridin-3-yl)-3-methyl-1-(4-methyl-pyridin-3-yl)-1,3-dihydro-imidazo[4,5-c]quinolin-2-one], the IC50 is 120 nM.
In the case of `Cn1c(=O)n(-c2cccnc2)c2c3cc(-c4ccc(CO)nc4)ccc3ncc21` [Example 5.1, 8-(6-Hydroxymethyl-pyridin-3-yl)-3-methyl-1-pyridin-3-yl-1,3-dihydro-imidazo[4,5-c]quinolin-2-one], the IC50 is 88 nM.
Turning to `CN(C)c1ccc(-c2ccc3ncc4c(c3c2)n(-c2cccnc2)c(=O)n4C)cn1` [Example 5.3, 8-(6-Dimethylamino-pyridin-3-yl)-3-methyl-1-pyridin-3-yl-1,3-dihydro-imidazo[4,5-c]quinolin-2-one], the IC50 was 193 nM.
Still for that read-out and setting: as for `CCOc1ccc(-c2ccc3ncc4c(c3c2)n(-c2cccnc2F)c(=O)n4C)cn1` [Example 6.1, 8-(6-Ethoxy-pyridin-3-yl)-1-(2-fluoro-pyridin-3-yl)-3-methyl-1,3-dihydro-imidazo[4,5-c]quinolin-2-one], the figure is 64 nM; as for `Cn1c(=O)n(-c2cccnc2F)c2c3cc(-c4cnc(N)c(C(F)(F)F)c4)ccc3ncc21` [Example 6.2, 8-(6-Amino-5-trifluoromethyl-pyridin-3-yl)-1-(2-fluoro-pyridin-3-yl)-3-methyl-1,3-dihydro-imidazo[4,5-c]quinolin-2-one], 12 nM.
For `Cc1nc(F)ccc1-n1c(=O)n(C)c2cnc3ccc(-c4cnc(N)c(C(F)(F)F)c4)cc3c21` [Example 7.1, 8-(6-Amino-5-trifluoromethyl-pyridin-3-yl)-1-(6-fluoro-2-methyl-pyridin-3-yl)-3-methyl-1,3-dihydro-imidazo[4,5-c]quinolin-2-one], the IC50 is 5 nM.
Still for that read-out and setting: as for `Cc1nc(F)ccc1-n1c(=O)n(C)c2cnc3ccc(-c4cnc5c(ccn5C)c4)cc3c21` [Example 7.2, 1-(6-Fluoro-2-methyl-pyridin-3-yl)-3-methyl-8-(1-methyl-1H-pyrrolo[2,3-b]pyridin-5-yl)-1,3-dihydro-imidazo[4,5-c]quinolin-2-one], the figure is 31 nM.
For `CCOc1ccc(-c2ccc3ncc4c(c3c2)n(-c2ccc(F)nc2C)c(=O)n4C)cn1` [Example 7.3, 8-(6-Ethoxy-pyridin-3-yl)-1-(6-fluoro-2-methyl-pyridin-3-yl)-3-methyl-1,3-dihydro-imidazo[4,5-c]quinolin-2-one], the IC50 is 71 nM.
In the case of `CNc1ccc(-c2ccc3ncc4c(c3c2)n(-c2ccc(F)nc2C)c(=O)n4C)cn1` [Example 7.4, 1-(6-Fluoro-2-methyl-pyridin-3-yl)-3-methyl-8-(6-methylamino-pyridin-3-yl)-1,3-dihydro-imidazo[4,5-c]quinolin-2-one], the IC50 was 21 nM.
For the molecule `CCOc1ccc(-c2ccc3ncc4c(c3c2)n(-c2ccc(N3CCNCC3)nc2OC)c(=O)n4C)cn1` [Example 9.1, 8-(6-Ethoxy-pyridin-3-yl)-1-(2-methoxy-6-piperazin-1-yl-pyridin-3-yl)-3-methyl-1,3-dihydro-imidazo[4,5-c]quinolin-2-one], the IC50 stood at 66 nM.
For `COc1nc(N2CCNCC2)ccc1-n1c(=O)n(C)c2cnc3ccc(-c4cnc(N)c(C(F)(F)F)c4)cc3c21` [Example 9.2, 8-(6-Amino-5-trifluoromethyl-pyridin-3-yl)-1-(2-methoxy-6-piperazin-1-yl-pyridin-3-yl)-3-methyl-1,3-dihydro-imidazo[4,5-c]quinolin-2-one], the IC50 is 15 nM.

Source of the values: patent US20100311714A1, “1H-IMIDAZO[4,5-c]QUINOLINONE COMPOUNDS” (priority 2009, published 2010).
